Experimental data: patent publication US20260125400A1, “TYK2 DEGRADERS AND USES THEREOF” (Kymera Therapeutics, Inc., priority 2023, published 2026)

Molecular target: T1, TYK2 (Homo sapiens, UniProt P29597)
T1 construct: Degradation of TYK2 in cells was quantitatively measured using Meso Scale Discovery (MSD) technology; endogenous in cells; host or cells: OCI-LY10
Assay: TYK2 MSD degradation in OCI-LY10 cells
Assay type: cell-based
Settings: TYK2 degradation in OCI-LY10 cells, 4 to 24 hours incubation; for DC50: read-out: TYK2 MSD OCI-LY10 Rel-DC50
In short: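 Cellular TYK2 levels were measured by Meso Scale Discovery sandwich detection in RIPA lysates of OCI-LY10 cells exposed 4 to 24 hours at 37° C to nine 1:3 compound doses starting at 1 to 10 μM final; dose-response fitted by four-parameter regression.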

T1 sequence (P29597 whole entry): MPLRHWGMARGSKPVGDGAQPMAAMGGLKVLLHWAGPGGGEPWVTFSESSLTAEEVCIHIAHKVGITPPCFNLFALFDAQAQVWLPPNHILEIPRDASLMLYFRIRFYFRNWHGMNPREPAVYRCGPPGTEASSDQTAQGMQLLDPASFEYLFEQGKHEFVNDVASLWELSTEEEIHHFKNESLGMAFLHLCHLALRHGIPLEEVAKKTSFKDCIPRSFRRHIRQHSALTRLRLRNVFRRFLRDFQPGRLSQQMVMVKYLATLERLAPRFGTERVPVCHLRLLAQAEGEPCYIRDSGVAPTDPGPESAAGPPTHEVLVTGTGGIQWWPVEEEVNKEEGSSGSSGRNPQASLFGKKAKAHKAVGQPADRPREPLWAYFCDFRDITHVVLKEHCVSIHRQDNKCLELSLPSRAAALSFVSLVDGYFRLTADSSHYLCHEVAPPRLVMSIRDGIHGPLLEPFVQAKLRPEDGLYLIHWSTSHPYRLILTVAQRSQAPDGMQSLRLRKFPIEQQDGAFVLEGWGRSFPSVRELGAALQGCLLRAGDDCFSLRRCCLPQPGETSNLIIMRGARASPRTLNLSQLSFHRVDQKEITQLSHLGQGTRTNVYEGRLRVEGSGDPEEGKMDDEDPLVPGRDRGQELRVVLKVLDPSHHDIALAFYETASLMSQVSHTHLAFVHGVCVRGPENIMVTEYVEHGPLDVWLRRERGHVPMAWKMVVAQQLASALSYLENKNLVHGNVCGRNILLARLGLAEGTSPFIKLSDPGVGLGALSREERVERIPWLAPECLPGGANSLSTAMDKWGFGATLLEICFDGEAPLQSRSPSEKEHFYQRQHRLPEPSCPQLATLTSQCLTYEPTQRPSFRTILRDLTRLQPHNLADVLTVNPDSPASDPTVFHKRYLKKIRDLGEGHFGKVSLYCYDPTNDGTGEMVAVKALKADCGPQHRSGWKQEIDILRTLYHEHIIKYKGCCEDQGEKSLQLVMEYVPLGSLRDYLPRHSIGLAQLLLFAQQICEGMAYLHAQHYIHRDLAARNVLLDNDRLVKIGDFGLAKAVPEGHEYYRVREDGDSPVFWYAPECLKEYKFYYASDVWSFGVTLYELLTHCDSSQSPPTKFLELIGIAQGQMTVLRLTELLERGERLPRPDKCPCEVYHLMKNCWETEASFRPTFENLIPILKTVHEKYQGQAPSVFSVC

## CNc1cc(N2CCc3c(-c4ccc(CN5CC6(CCN(C(=O)c7ccc(Cl)c(N8CCC(=O)NC8=O)c7)CC6(F)F)C5)cn4)cc(C)cc32)nn2c(C(=O)N[C@@H]3C[C@@H]3F)cnc12 [I-852]
  TYK2 MSD OCI-LY10 Dmax %: B (B (90 to >75%))
  DC50: < 10 nM

## CNc1cc(N2CCc3c(CN4CCC(N5CCC6(CCN(C(=O)c7cc(N8CCC(=O)NC8=O)c(C)cc7F)CC6)CC5)C(F)(F)C4)cccc32)nn2c(C(=O)N[C@@H]3C[C@@H]3F)cnc12 (stereo partly drawn) [I-853]
  TYK2 MSD OCI-LY10 Dmax %: A (A (>90%))
  DC50: < 1 nM

## CNc1cc(N2CCc3c(C#CCN4CCC(N5CCN(C(=O)c6ccc(Cl)c(N7CCC(=O)NC7=O)c6)CC5)C(F)(F)C4)cccc32)nn2c(C(=O)NC3CC3F)cnc12 (stereo not drawn) [I-854]
  TYK2 MSD OCI-LY10 Dmax %: A (A (>90%))
  DC50: < 1 nM

## CNc1cc(N2CCc3c(CN4CCC(N5CCC6(CC5)CN(C(=O)c5ccc(Cl)c(N7CCC(=O)NC7=O)c5)C6)C(F)(F)C4)cccc32)nn2c(C(=O)N[C@@H]3C[C@@H]3F)cnc12 (stereo partly drawn) [I-855]
  TYK2 MSD OCI-LY10 Dmax %: A (A (>90%))
  DC50: < 1 nM

## CNc1cc(N2CCc3c(-c4ccc(CN5CC6(CCN(C(=O)c7ccc(Cl)c(N8CCC(=O)NC8=O)c7)CC6(F)F)C5)cn4)cc(C(F)(F)F)cc32)nn2c(C(=O)N[C@@H]3C[C@@H]3F)cnc12 [I-856]
  TYK2 MSD OCI-LY10 Dmax %: C (C (75 to 50%))
  DC50: 10 to 100 nM

## CNc1cc(N2CCc3c(CN4CCN(C5CCC6(CC5)CCN(C(=O)c5ccc(Cl)c(N7CCC(=O)NC7=O)c5)CC6)CC4)cccc32)nn2c(C(=O)N[C@@H]3C[C@@H]3F)cnc12 [I-857]
  TYK2 MSD OCI-LY10 Dmax %: A (A (>90%))
  DC50: < 1 nM

## COC1(c2cc(C)cc(-c3cn(C4CCN(CC5CCN(C(=O)c6ccc(Cl)c(N7CCC(=O)NC7=O)c6)CC5)CC4)c4cnc(NC(C)=O)cc34)n2)CCOC1 (stereo not drawn) [I-858]
  TYK2 MSD OCI-LY10 Dmax %: D (D (<50%))
  DC50: > 100 nM

## CNc1cc(N2CCc3c(-c4ccc(CN5CC6(CCN(C(=O)c7ccc(Cl)c(N8CCC(=O)NC8=O)c7)CC6(F)F)C5)cn4)cc(OC)cc32)nn2c(C(=O)N[C@@H]3C[C@@H]3F)cnc12 [I-859]
  TYK2 MSD OCI-LY10 Dmax %: B (B (90 to >75%))
  DC50: < 10 nM

## CNc1cc(N2CCc3c(-c4ccc(N5CCC6(CCN(Cc7ccc(N8CCC(=O)NC8=O)c(Cl)c7)CC6)CC5)cn4)cccc32)nn2c(C(=O)N[C@@H]3C[C@@H]3F)cnc12 [I-870]
  TYK2 MSD OCI-LY10 Dmax %: C (C (75 to 50%))
  DC50: 10 to 100 nM

## CNc1cc(-c2ccc(-c3ccc(CN4CC5(CCN(C(=O)c6ccc(Cl)c(N7CCC(=O)NC7=O)c6)CC5(F)F)C4)cn3)cc2)nn2c(C(=O)N[C@@H]3C[C@@H]3F)cnc12 [I-880]
  TYK2 MSD OCI-LY10 Dmax %: B (B (90 to >75%))
  DC50: < 10 nM

## CNc1cc(N2CCc3c(-c4ccc(N5CC6(CCN(Cc7ccc(N8CCC(=O)NC8=O)c(Cl)c7)CC6)C5)cn4)cccc32)nn2c(C(=O)N[C@@H]3C[C@@H]3F)cnc12 [I-881]
  TYK2 MSD OCI-LY10 Dmax %: B (B (90 to >75%))
  DC50: < 10 nM

## CNc1cc(-c2ccc(N3CCC(CN4CC5(CCN(C(=O)c6ccc(Cl)c(N7CCC(=O)NC7=O)c6)CC5(F)F)C4)CC3)cc2)nn2c(C(=O)N[C@@H]3C[C@@H]3F)cnc12 [I-882]
  TYK2 MSD OCI-LY10 Dmax %: D (D (<50%))
  DC50: > 100 nM

## CNc1cc(N2CCc3c(-c4ccc(CN5CC6(CCN(C(=O)c7ccc(Cl)c(N8CCC(=O)NC8=O)c7)CC6(F)F)C5)cn4)cccc32)nn2c(C(=O)N[C@H]3C[C@@H](F)C3)cnc12 [I-883]
  TYK2 MSD OCI-LY10 Dmax %: A (A (>90%))
  DC50: < 1 nM

## CNc1cc(N2CCc3c(-c4ccc(CN5CC6(CCC(=Cc7ccc(Cl)c(N8CCC(=O)NC8=O)c7)CC6)C5)cn4)cccc32)nn2c(C(=O)N[C@@H]3C[C@@H]3F)cnc12 [I-884]
  TYK2 MSD OCI-LY10 Dmax %: C (C (75 to 50%))
  DC50: 10 to 100 nM

## CNc1cc(N2CCc3c(-c4ccc(N5CCC6(CCN(C(=O)c7ccc(N8CCC(=O)NC8=O)c(Cl)c7)CC6)CC5)cn4)cccc32)nn2c(C(=O)N[C@@H]3C[C@@H]3F)cnc12 [I-885]
  TYK2 MSD OCI-LY10 Dmax %: C (C (75 to 50%))
  DC50: 10 to 100 nM

## CNc1cc(N2CCc3c(-c4ccc(CN5CC6(CCN(C(=O)c7ccc(Cl)c(N8CCC(=O)NC8=O)c7)CC6(F)F)C5)cn4)cccc32)nn2c(C(=O)N[C@H]3C[C@H](OC)C3)cnc12 [I-886]
  TYK2 MSD OCI-LY10 Dmax %: B (B (90 to >75%))
  DC50: < 10 nM

## CNc1cc(N2CCc3c(N4CCN(CCC5CC6(CCN(C(=O)c7ccc(Cl)c(N8CCC(=O)NC8=O)c7)CC6)C5)CC4)cccc32)nn2c(C(=O)N[C@@H]3C[C@@H]3F)cnc12 [I-887]
  TYK2 MSD OCI-LY10 Dmax %: B (B (90 to >75%))
  DC50: < 10 nM

## CNc1cc(N2CCc3c(-c4ccc(CN5CC6(CCN(C(=O)c7ccc(Cl)c(N8CCC(=O)NC8=O)c7)CC6(F)F)C5)cn4)cccc32)nn2c(C(=O)N[C@H]3C[C@H](C)C3)cnc12 [I-888]
  TYK2 MSD OCI-LY10 Dmax %: B (B (90 to >75%))
  DC50: < 10 nM

## CNc1cc(-c2ccc(N3CCN(CC4CC5(CCN(C(=O)c6ccc(Cl)c(N7CCC(=O)NC7=O)c6)CC5)C4)CC3)cc2)nn2c(C(=O)N[C@@H]3C[C@@H]3F)cnc12 [I-889]
  TYK2 MSD OCI-LY10 Dmax %: D (D (<50%))
  DC50: > 100 nM

## CNc1cc(N2CCc3c(CN4CCC(N5CCN(C(=O)c6ccc(Cl)c(N7CCC(=O)NC7=O)c6)CC5)C(F)(F)C4)cccc32)nn2c(C(=O)N[C@@H]3C[C@@H]3F)cnc12 (stereo partly drawn) [I-890]
  TYK2 MSD OCI-LY10 Dmax %: B (B (90 to >75%))
  DC50: < 10 nM

## CNc1cc(N2CCc3c(CN4CCC(CN5CCN(C(=O)c6ccc(Cl)c(N7CCC(=O)NC7=O)c6)CC5)CC4)cccc32)nn2c(C(=O)N[C@@H]3C[C@@H]3F)cnc12 [I-891]
  TYK2 MSD OCI-LY10 Dmax %: D (D (<50%))
  DC50: > 100 nM

## CNc1cc(N2CCc3c(-c4ccc(N5CC6(CCN(C(=O)c7ccc(N8CCC(=O)NC8=O)c(Cl)c7)CC6)C5)cn4)cccc32)nn2c(C(=O)N[C@@H]3C[C@@H]3F)cnc12 [I-892]
  TYK2 MSD OCI-LY10 Dmax %: B (B (90 to >75%))
  DC50: < 10 nM

## CNc1cc(N2CCc3c(CN4CCC(CN5CCC6(CC5)CN(C(=O)c5ccc(Cl)c(N7CCC(=O)NC7=O)c5)C6)CC4)cccc32)nn2c(C(=O)N[C@@H]3C[C@@H]3F)cnc12 [I-893]
  TYK2 MSD OCI-LY10 Dmax %: D (D (<50%))
  DC50: > 100 nM

## CNc1cc(N2CCc3c(CN4CCC(CN5CC6(CCN(C(=O)c7ccc(Cl)c(N8CCC(=O)NC8=O)c7)CC6)C5)CC4)cccc32)nn2c(C(=O)N[C@@H]3C[C@@H]3F)cnc12 [I-894]
  TYK2 MSD OCI-LY10 Dmax %: B (B (90 to >75%))
  DC50: < 10 nM

## CNc1cc(N2CCc3c(CCN4CCC5(CC4)CCN(C(=O)c4ccc(Cl)c(N6CCC(=O)NC6=O)c4)CC5)cccc32)nn2c(C(=O)N[C@@H]3C[C@@H]3F)cnc12 [I-895]
  TYK2 MSD OCI-LY10 Dmax %: D (D (<50%))
  DC50: > 100 nM

## CNc1cc(N2CCc3c(-c4ccc(CN5CC6(CCN(C(=O)c7ccc(N8CCC(=O)NC8=O)c(Cl)c7)CC6)C5)cn4)cccc32)nn2c(C(=O)N[C@@H]3C[C@@H]3F)cnc12 [I-896]
  TYK2 MSD OCI-LY10 Dmax %: D (D (<50%))
  DC50: > 100 nM

## CNc1cc(N2CCc3c2cccc3C23CC(CN4CC5(CCN(C(=O)c6ccc(Cl)c(N7CCC(=O)NC7=O)c6)CC5(F)F)C4)(C2)C3)nn2c(C(=O)N[C@@H]3C[C@@H]3F)cnc12 [I-897]
  TYK2 MSD OCI-LY10 Dmax %: B (B (90 to >75%))
  DC50: < 10 nM

## CNc1cc(N2CCc3c(-c4ccc(CN5CCC6(CC5)CC(Oc5ccc(N7CCC(=O)NC7=O)c(Cl)c5)C6)cn4)cccc32)nn2c(C(=O)N[C@@H]3C[C@@H]3F)cnc12 [I-898]
  TYK2 MSD OCI-LY10 Dmax %: D (D (<50%))
  DC50: > 100 nM

## CNc1cc(N2CCc3c(N4CCC(CN5CC6(CCN(Cc7ccc(Cl)c(N8CCC(=O)NC8=O)c7)CC6(F)F)C5)CC4)cccc32)nn2c(C(=O)N[C@@H]3C[C@@H]3F)cnc12 [I-899]
  TYK2 MSD OCI-LY10 Dmax %: D (D (<50%))
  DC50: > 100 nM

## CNc1cc(N2CCc3c(CN4CCC(N5CCN(CCc6ccc(Cl)c(C7CCC(=O)NC7=O)c6)CC5)C(F)(F)C4)cccc32)nn2c(C(=O)NC3CC3F)cnc12 (stereo not drawn) [I-900]
  TYK2 MSD OCI-LY10 Dmax %: B (B (90 to >75%))
  DC50: < 10 nM

## CNc1cc(N2CCc3c(-c4ccc(CN5CCC6(CCN(C(=O)c7ccc(Cl)c(N8CCC(=O)NC8=O)c7)CC6)C(F)(F)C5)cn4)cccc32)nn2c(C(=O)N[C@@H]3C[C@@H]3F)cnc12 [I-901]
  TYK2 MSD OCI-LY10 Dmax %: A (A (>90%))
  DC50: < 1 nM

## CNc1cc(N2CCc3c(-c4ccc(CN5CCC(N6CCN(CCc7ccc(Cl)c(C8CCC(=O)NC8=O)c7)CC6)C(F)(F)C5)cn4)cccc32)nn2c(C(=O)NC3CC3F)cnc12 (stereo not drawn) [I-902]
  TYK2 MSD OCI-LY10 Dmax %: B (B (90 to >75%))
  DC50: < 10 nM

## CNc1cc(N2CCc3c(CN4CCC(N5CC(N6CCN(c7cccc8c(N9CCC(=O)NC9=O)nn(C)c78)CC6)C5)C(F)(F)C4)cccc32)nn2c(C(=O)N[C@@H]3C[C@@H]3F)cnc12 (stereo partly drawn) [I-903]
  TYK2 MSD OCI-LY10 Dmax %: B (B (90 to >75%))
  DC50: < 10 nM

## CNc1cc(N2CCc3c(CN4CCC(N5CC(N6CCN(c7cccn8c(N9CCC(=O)NC9=O)cnc78)CC6)C5)C(F)(F)C4)cccc32)nn2c(C(=O)N[C@@H]3C[C@@H]3F)cnc12 (stereo partly drawn) [I-904]
  TYK2 MSD OCI-LY10 Dmax %: A (A (>90%))
  DC50: < 1 nM

## CNc1cc(N2CCc3c(-c4ccc(CN5CCC(N6CCN(c7ccc8c(c7F)n(C)c(=O)n8C7CCC(=O)NC7=O)CC6)C(F)(F)C5)cn4)cccc32)nn2c(C(=O)NC3CC3F)cnc12 (stereo not drawn) [I-910]
  TYK2 MSD OCI-LY10 Dmax %: B (B (90 to >75%))
  DC50: < 10 nM

## CNC(=O)c1cnc(Nc2ccc(C(=O)NCCOCCOCCOCCOCCN(C(=O)[C@H]3CCCN(c4cncc5ccccc45)C3)c3ccc(=O)n(CC(=O)OC)c3)cn2)cc1Nc1cccc(-c2ncccn2)c1OC [I-912, Methyl (S)-2-(5-(1-(isoquinolin-4-yl)-N-(1-(6-((4-((2-methoxy-3-(pyrimidin-2-yl)phenyl)amino)-5-(methylcarbamoyl)pyridin-2-yl)amino)pyridin-3-yl)-1-oxo-5,8,11,14-tetraoxa-2-azahexadecan-16-yl)piperidine-3-carboxamido)-2-oxopyridin-1(2H)-yl)acetate]
  Dmax: < 50%
  DC50: > 100 nM
